# The source made the active and inactive calls. The rule behind the calls is not given here.
# How the values were obtained:
# BaF3 [1] = assay: PROTAC activity at CRBN/KIF5B-RET (unknown origin) expressed in mouse BaF3 cells assessed as induction of RET degradation at 1000 nM measured after 6 hrs by Western blot analysis relative to control; type: cell-based
# BaF3 [2] = assay: Antiproliferative activity against mouse BaF3 cells stably expressing KIF5B-RET-G810C mutant incubated for 72 hrs by CCK-8 assay; type: functional, cell-based; conditions: BaF3, 72 h
# [3] = Potency index, ratio of selpercatinib IC50 to test compound IC50 for antiproliferative activity against mouse BaF3 cells stably expressing KIF5B-RET-G810C mutant incubated for 72 hrs by CCK-8 assay; type: functional
# [4] = PROTAC activity at CRBN/KIF5B-RET (unknown origin) expressed in mouse BaF3 cells assessed as induction of RET degradation measured after 6 hrs by Western blot analysis; conditions: Homo sapiens, BaF3, 6 h
# BaF3 [5] = assay: PROTAC activity at CRBN/IKZF1 in mouse BaF3 cells overexpressing KIF5B-RET assessed as induction of […] at 10 to 1000 nM incubated for 6 hrs by Western blot analysis; type: cell-based; conditions: dose 10-1000 nM
# BaF3 [6] = assay: Antiproliferative activity against mouse BaF3 cells stably expressing KIF5B-RET-V804M mutant incubated for 72 hrs by CCK-8 assay; type: functional, cell-based; conditions: BaF3, 72 h
# BaF3 [7] = assay: Antiproliferative activity against mouse BaF3 cells stably expressing CCDC6-RET-G810C mutant incubated for 72 hrs by CCK-8 assay; type: functional, cell-based; conditions: BaF3, 72 h
# [8] = Potency index, ratio of selpercatinib IC50 to test compound IC50 for antiproliferative activity against mouse BaF3 cells stably expressing CCDC6-RET-G810C mutant incubated for 72 hrs by CCK-8 assay; type: functional
# [9] = Effect on RET protein level in mouse BaF3 cells stably expressing KIF5B-RET-V804M mutant assessed as fold change at 11.1 nM measured after 6 hrs by Western blot analysis (reference value: 1); type: functional
# [10] = Effect on RET protein level in mouse BaF3 cells stably expressing KIF5B-RET-V804M mutant assessed as fold change at 33.3 nM measured after 6 hrs by Western blot analysis (reference value: 1); type: functional
# [11] = Effect on RET protein level in mouse BaF3 cells stably expressing KIF5B-RET-G810C mutant assessed as fold change at 100 nM measured after 6 hrs by Western blot analysis (reference value: 1); type: functional
# [12] = Effect on Shc protein level in mouse BaF3 cells stably expressing KIF5B-RET-G810C mutant assessed as fold change at 100 nM measured after 6 hrs by Western blot analysis (reference value: 1); type: functional
# [13] = Effect on RET protein level in mouse BaF3 cells stably expressing KIF5B-RET-G810R mutant assessed as fold change at 300 nM measured after 6 hrs by Western blot analysis (reference value: 1); type: functional
# [14] = Effect on Shc protein level in mouse BaF3 cells stably expressing KIF5B-RET-G810R mutant assessed as fold change at 11.1 nM measured after 6 hrs by Western blot analysis (reference value: 1); type: functional
# BaF3 [15] = assay: Inhibition of Shc (unknown origin) phosphorylation in mouse BaF3 cells stably expression KIF5B-RET G810R mutant at 333.3 to 3000 nM measured after 6 hrs by Western blot analysis; type: cell-based; conditions: Homo sapiens, dose 333.3-3000 nM
# [16] = Induction of apoptosis in mouse BaF3 cells stably expressing wildtype KIF5B-RET fusion protein assessed as early apoptotic cells at 11.1 nM measured after 48 hrs by Annexin V-FITC/7-AAD staining based flow cytometric analysis (reference value: 9.92 %); type: functional
# [17] = Induction of apoptosis in mouse BaF3 cells stably expressing wildtype KIF5B-RET fusion protein assessed as viable cells at 33.3 nM measured after 48 hrs by Annexin V-FITC/7-AAD staining based flow cytometric analysis (reference value: 86.65 %); type: functional; conditions: read-out: Activity
# [18] = Induction of apoptosis in mouse BaF3 cells stably expressing wildtype KIF5B-RET fusion protein assessed as early apoptotic cells at 33.3 nM measured after 48 hrs by Annexin V-FITC/7-AAD staining based flow cytometric analysis (reference value: 9.92 %); type: functional
# [19] = Induction of apoptosis in mouse BaF3 cells stably expressing wildtype KIF5B-RET fusion protein assessed as late apoptotic cells at 100 nM measured after 48 hrs by Annexin V-FITC/7-AAD staining based flow cytometric analysis (reference value: 1.03 %); type: functional
# [20] = Induction of apoptosis in mouse BaF3 cells stably expressing wildtype KIF5B-RET fusion protein assessed as necrotic cells at 100 nM measured after 48 hrs by Annexin V-FITC/7-AAD staining based flow cytometric analysis (reference value: 2.40 %); type: functional
# [21] = Induction of apoptosis in mouse BaF3 cells stably expressing KIF5B-RET-G810C mutant assessed as viable cells at 33.3 nM measured after 48 hrs by Annexin V-FITC/7-AAD staining based flow cytometric analysis (reference value: 86.58 %); type: functional; conditions: read-out: Activity
# [22] = Induction of apoptosis in mouse BaF3 cells stably expressing KIF5B-RET-G810C mutant assessed as viable cells at 100 nM measured after 48 hrs by Annexin V-FITC/7-AAD staining based flow cytometric analysis (reference value: 86.58 %); type: functional; conditions: read-out: Activity
# [23] = Induction of apoptosis in mouse BaF3 cells stably expressing KIF5B-RET-G810C mutant assessed as viable cells at 300 nM measured after 48 hrs by Annexin V-FITC/7-AAD staining based flow cytometric analysis (reference value: 86.58 %); type: functional; conditions: read-out: Activity
# [24] = Induction of apoptosis in mouse BaF3 cells stably expressing KIF5B-RET-G810C mutant assessed as early apoptotic cells at 900 nM measured after 48 hrs by Annexin V-FITC/7-AAD staining based flow cytometric analysis (reference value: 8.57 %); type: functional
# [25] = Induction of apoptosis in mouse BaF3 cells stably expressing KIF5B-RET-G810C mutant assessed as late apoptotic cells at 900 nM measured after 48 hrs by Annexin V-FITC/7-AAD staining based flow cytometric analysis (reference value: 1.96 %); type: functional
# [26] = Toxicity in male BALB/c mouse model implanted with mouse BaF3 cells stably expressing KIF5B-RET-G810C mutant assessed as body weight loss at 10 to 30 mg/kg, ip administered daily for 14 days; type: organism-based; conditions: in vivo, 336 h, dose 10-30 mg/kg, time 14 day
# [27] = test system: Kinesin-1 heavy chain/ Tyrosine-protein kinase receptor RET (Homo sapiens), P07949+P33176 [G810C]; assay: In vivo PROTAC activity at CRBN/KIF5B-RET-G810C mutant in male BALB/c mouse model implanted with mouse BaF3 cells stably expressing KIF5B-RET-G810C mutant assessed as induction of RET degradation in tumor at 10 mg/kg, ip measured after 3 days by Western blotting analysis relative to control; type: functional, organism-based; conditions: time 3.0 day
# [28] = test system: Kinesin-1 heavy chain/ Tyrosine-protein kinase receptor RET (Homo sapiens), P07949+P33176 [G810C]; assay: In vivo PROTAC activity at CRBN/KIF5B-RET-G810C mutant in male BALB/c mouse model implanted with mouse BaF3 cells stably expressing KIF5B-RET-G810C mutant assessed as induction of RET degradation in tumor at 30 mg/kg, ip measured after 3 days by Western blotting analysis relative to control; type: functional, organism-based; conditions: time 3.0 day
structure (smiles),measurement,setting,value
COc1ccc(CN2C3CC2CN(c2ccc(-c4cc(-c5cnn(C6CCN(CCCCCC#Cc7cccc8c7CN(C7CCC(=O)NC7=O)C8=O)CC6)c5)cn5ncc(C#N)c45)cn2)C3)cn1 (stereo not drawn),Activity,BaF3 [1],74%
same,IC50,BaF3 [2],0.05 µM
same,Ratio IC50,[3],~14
same,DC50,[4],0.0047 µM
same,Activity,BaF3 [5],inactive
same,IC50,BaF3 [6],0.04 µM
same,IC50,BaF3 [7],0.04 µM
same,Ratio IC50,[8],~8.8
same,fold change (FC),[9],0.7
same,fold change (FC),[10],0.2
same,fold change (FC),[11],0.4
same,fold change (FC),[12],1
same,fold change (FC),[13],0.6
same,fold change (FC),[14],0.9
same,inhibition,BaF3 [15],Active
same,Activity,[16],11.31%
same,viability at 0.0333 µM,[17],74.2%
same,Activity,[18],20.96%
same,Activity,[19],0.99%
same,Activity,[20],0.52%
same,viability at 0.0333 µM,[21],85.5%
same,viability at 0.1 µM,[22],75.4%
same,viability at 0.3 µM,[23],63.1%
same,Activity,[24],54.08%
same,Activity,[25],3.71%
same,Activity,[26],Non-toxic
same,Activity,[27],47%
same,Activity,[28],55.3%
